Each structure is given as a SMILES string. Entries after “also recorded” stand apart in the source; their conditions may differ.

This is an account of results in patent US20240368566A1, “PYK2-DERIVED PEPTIDES FOR INHIBITING INVADOPODIA-MEDIATED CANCER METASTASIS” (BAR-ILAN UNIVERSITY, priority 2023, published 2024).

In one experiment the test system is 4T1 cells. Kind of experiment: Spontaneous lung metastasis clonogenic assay in 4T1 xenograft mouse model. It is filed as in vivo, BALB/c female mice. The settings on record: 10 mg/kg once a day for eight days, intraperitoneal injection, HIV-TAT fused peptide; versus scrambled control. Here is the method:
All experimental procedures were conducted following the Federation of Laboratory Animal Science Association (FELSA) and were approved by the Bar-Ilan University animal use and care committee. Mouse xenograft tumors were generated by injecting 10^6 4T1 cells resuspended in 20% collagen I (BD Biosciences, Franklin Lakes, NJ, USA) in PBS into the lower-left mammary gland of 8-week-old BALB/c female mice. […] 4T1 cells have intrinsic resistance to 6-thioguanine, which enables precise quantification of metastatic cells, even when they are disseminated at sub-microscopic levels at distant organs, upon excision and digestion of selected organs. The clonogenic assay is based on a principle by which one colony represents one metastatic cell. Briefly, spontaneous lung metastasis was measured in BALB/c mice bearing orthotopic 4T1 tumors of equal size (1-1.2 cm in diameter). Lungs were excised and minced and plated in RPMI/10% FBS in the presence of 6-thioguanine to select for tumor cells only. Cells were plated in a 5% CO2 incubator at 37° C. for 14 days to form 4T1 colonies. On day 14 after plating, the medium was removed from dishes, and colonies were fixed in 4% paraformaldehyde for one hour at room temperature. Colonies were then stained in 2% crystal violet solution and thoroughly washed with PBS. Plates were allowed to air dry, and colonies in each plate were quantified. […]

The next experiment concerns MDA-MB-231 cells. Kind of experiment: Barbed end formation assay. To be noted: EGF stimulation; all concentrations. It is filed as cell-based, human. On the procedure:
The barbed end assay was performed using biotin-conjugated actin as described in Genna et al., 2018 (supra). In brief, 24 h before each experiment, cells were plated on fibronectin/gelatin unlabeled matrix in the presence of Pyk2-PRR or control peptides at 0.1, 1, or 5 μM concentration and allowed to attach for 8 h. Cells were starved for 16 h in the presence of the peptides and then stimulated with 2.5 nM EGF and permeabilized with a permeabilization buffer (20 mM Hepes, pH 7.5, 138 mM KCl, 4 mM MgCl2, 3 mM EGTA, 0.2 mg/ml saponin, 1 mM ATP, and 1% BSA) containing 0.4 μM biotin-conjugated muscle actin (AB07) (Cytoskeleton Inc., Denver, CO, USA) for 1 min at 37° C. Cells were fixed in 3.7% paraformaldehyde for 5 min, blocked in PBS containing 1% FBS, 1% BSA, and 3 μM un-labeled phalloidin (Molecular Probes, P3457), then labeled with FITC anti-biotin (200-092-211) (Jackson ImmunoResearch Laboratories, West Grove, PA, USA) to visualize barbed ends, and with rhodamine-phalloidin (R415) (Molecular Probes, Eugene, OR, USA) and Arp2 to identify regions of cells rich in invadopodia. The barbed end intensity at invadopodia-rich regions was quantified by measuring mgv at invadopodia-rich areas minus mgv of the background. Data were normalized to the control condition for each experiment.

`C[C@H](NC(=O)[C@@H](N)[C@@H](C)O)C(=O)N[C@@H](Cc1ccccc1)C(=O)N[C@@H](CCC(N)=O)C(=O)N[C@@H](CCC(=O)O)C(=O)N1CCC[C@H]1C(=O)N1CCC[C@H]1C(=O)N1CCC[C@H]1C(=O)N[C@@H](CCCCN)C(=O)N1CCC[C@H]1C(=O)N[C@@H](CO)C(=O)N[C@@H](CCCNC(=N)N)C(=O)N1CCC[C@H]1C(=O)N[C@@H](CCCCN)C(=O)N[C@@H](Cc1ccc(O)cc1)C(=O)N[C@@H](CCCNC(=N)N)C(=O)N1CCC[C@H]1C(=O)N1CCC[C@H]1C(=O)N1CCC[C@H]1C(=O)O` [Pyk2-PRR2, TAFQEPPPKPSRPKYRPPP]: the “lung metastases (6-thioguanine-resistant colonies)” value in the experiment on 4T1 cells is on record as “significantly fewer lung metastases; also recorded: can suppress in vivo breast tumor metastasis; also recorded: significantly inhibited lung metastasis”. Further, the “generation of free actin barbed ends at invadopodia” value in the experiment with MDA-MB-231 cells is recorded as “completely disrupted”.
